Here are results for 5 molecules from ChEMBL document CHEMBL3272010, “Antimycotic imidazoles. 3. Synthesis and antimycotic properties of 1-[2-(aryloxyalkyl)-2-phenylethyl]-1H-imidazoles” (1977).

Common to all, as to format: functional
For one assay, the system named is Cryptococcus neoformans. Nature of the assay: Antifungal activity against Cryptococcus neoformans assessed as lowest dose required to total inhibition of fungal growth.
For the next assay, the system named is Sporothrix schenckii. The assay is described as follows: Antifungal activity against Sporothrix schenckii assessed as lowest dose required to total inhibition of fungal growth.
The test system of a further assay is Candida tropicalis. The assay is described as follows: Antifungal activity against Candida tropicalis assessed as lowest dose required to total inhibition of fungal growth.
A further assay deals with Mucor. Nature of the assay: Antifungal activity against Mucor species assessed as lowest dose required to total inhibition of fungal growth.
For another assay, the system named is Streptococcus pyogenes. Nature of the assay: Antibaterial activity against Streptococcus pyogenes assessed as lowest dose required to total inhibition of bacterial growth.
Assay [1] relates to Erysipelothrix rhusiopathiae. Nature of the assay: Antibaterial activity against Erysipelothrix insidiosa assessed as lowest dose required to total inhibition of bacterial growth.
For the next assay, the system named is Saprolegnia. The assay is described as follows: Antifungal activity against Saprolegnia species assessed as lowest dose required to total inhibition of fungal growth.
The subject of a further assay is Trichophyton rubrum. Nature of the assay: Antifungal activity against Trichophyton rubrum assessed as lowest dose required to total inhibition of fungal growth.
A further assay concerns Candida albicans. The assay is described as follows: Antifungal activity against Candida albicans assessed as lowest dose required to total inhibition of fungal growth.
The test system of assay [2] is Trichophyton mentagrophytes. The assay is described as follows: Antifungal activity against Trichophyton mentagrophytes assessed as lowest dose required to total inhibition of fungal growth.
For another assay, the system named is Aspergillus fumigatus. Nature of the assay: Antifungal activity against Aspergillus fumigatus assessed as lowest dose required to total inhibition of fungal growth.
A further assay has as its system Phialophora verrucosa. Nature of the assay: Antifungal activity against Phialophora verrucosa assessed as lowest dose required to total inhibition of fungal growth.
Another assay deals with Microsporum canis. Nature of the assay: Antifungal activity against Microsporum canis assessed as lowest dose required to total inhibition of fungal growth.
For assay [3], the system named is Staphylococcus haemolyticus. The assay is described as follows: Antibaterial activity against Staphylococcus haemolyticus assessed as lowest dose required to total inhibition of bacterial growth.

Structures are written as SMILES. Bounds are passed on as bounds.

As for `Clc1ccc(C(CCOc2ccc(Br)cc2)Cn2ccnc2)c(Cl)c1.O=[N+]([O-])O` (stereo not given), the GI in the assay with Cryptococcus neoformans is <10 µg/mL; in the assay with Sporothrix schenckii, <10 µg/mL; in the assay on Candida tropicalis, 100 µg/mL; in the assay on Mucor, 100 µg/mL; in the assay with Streptococcus pyogenes, <10 µg/mL; in assay [1] it was <10 µg/mL. Besides, the GI in the assay on Saprolegnia was <10 µg/mL; in the assay on Trichophyton rubrum, <10 µg/mL; in the assay with Candida albicans, <10 µg/mL; in assay [2], <10 µg/mL; with Aspergillus fumigatus, 100 µg/mL; in the assay on Phialophora verrucosa, <10 µg/mL. For the same molecule, the values for the GI (in the assay on Microsporum canis; in assay [3]) were <10 µg/mL and 100 µg/mL, respectively.

On to `Clc1ccc(OCC(Cn2ccnc2)c2ccc(Br)cc2)cc1.O=[N+]([O-])O` (stereo not given), for which the GI is 10 µg/mL with Cryptococcus neoformans; 10 µg/mL with Sporothrix schenckii; >100 µg/mL in the assay on Candida tropicalis; >100 µg/mL in the assay on Mucor; <1 µg/mL in the assay on Streptococcus pyogenes; <1 µg/mL in [1]. For the same molecule, the GI was >100 µg/mL in the assay on Saprolegnia; <1 µg/mL with Trichophyton rubrum; 100 µg/mL in the assay on Candida albicans; <1 µg/mL in [2]; 100 µg/mL in the assay with Aspergillus fumigatus; 100 µg/mL in the assay with Phialophora verrucosa. Besides, the GI (in the assay on Microsporum canis; in assay [3]) was 10 µg/mL throughout.

Consider `Clc1ccc(C(COc2ccccc2Cl)Cn2ccnc2)c(Cl)c1.O=[N+]([O-])O` (stereo not given), for which the GI was <1 µg/mL in the assay with Cryptococcus neoformans; 10 µg/mL in the assay with Sporothrix schenckii; >100 µg/mL in the assay with Candida tropicalis; >100 µg/mL in the assay on Mucor; <1 µg/mL in the assay on Streptococcus pyogenes; <1 µg/mL in assay [1]. The GI with Saprolegnia was 100 µg/mL; with Trichophyton rubrum, <1 µg/mL; in the assay with Candida albicans, 100 µg/mL; in assay [2] it was <1 µg/mL; with Aspergillus fumigatus, 100 µg/mL; with Phialophora verrucosa, 100 µg/mL. Besides, the GI with Microsporum canis worked out at 10 µg/mL; in [3], 1 µg/mL.

Regarding `Clc1ccc(C(CCOc2ccccc2Br)Cn2ccnc2)c(Cl)c1.O=C(O)C(=O)O` (stereo not given), the GI in the assay with Cryptococcus neoformans was <1 µg/mL; in the assay on Sporothrix schenckii, 10 µg/mL; in the assay with Candida tropicalis, >100 µg/mL; in the assay with Mucor, >100 µg/mL; in the assay on Streptococcus pyogenes, <1 µg/mL; in [1], <1 µg/mL. Moreover, the GI was 100 µg/mL with Saprolegnia; <1 µg/mL with Trichophyton rubrum; >100 µg/mL with Candida albicans; <1 µg/mL in assay [2]; >100 µg/mL in the assay on Aspergillus fumigatus; 100 µg/mL with Phialophora verrucosa. Moreover, the GI is 100 µg/mL in the assay on Microsporum canis and 10 µg/mL in [3].

As for `Clc1ccc(C(CCCOc2ccccc2Br)Cn2ccnc2)c(Cl)c1.O=C(O)C(=O)O` (stereo not given), the GI is <1 µg/mL in the assay on Cryptococcus neoformans; 10 µg/mL in the assay on Sporothrix schenckii; >100 µg/mL with Candida tropicalis; >100 µg/mL with Mucor; <1 µg/mL in the assay with Streptococcus pyogenes; <1 µg/mL in assay [1]. Moreover, the GI in the assay with Saprolegnia was 100 µg/mL; in the assay with Trichophyton rubrum, <1 µg/mL; with Candida albicans it was 100 µg/mL; in [2], <1 µg/mL; with Aspergillus fumigatus, 100 µg/mL; in the assay with Phialophora verrucosa, 100 µg/mL. In addition, the GI is <1 µg/mL in the assay with Microsporum canis and 10 µg/mL in [3].
